# Legend:
# MCF7 = experiment: Antiproliferative activity against human MCF7 cells after 72 hrs by MTT assay; format: functional, cell-based; details: MCF7, 72 h
# [1] = molecular target: T1, Vitamin D3 receptor (Homo sapiens) (UniProt P11473); experiment: Inhibition of Fluormone VDR Red binding to human VDR LBD expressed in insect cells assessed as binding ability at 1 uM by fluorescence polarization assay relative to 1,25(OH)2D3; parameters: scale not given: the % may be the effect or the level left
# T1 sequence (whole entry): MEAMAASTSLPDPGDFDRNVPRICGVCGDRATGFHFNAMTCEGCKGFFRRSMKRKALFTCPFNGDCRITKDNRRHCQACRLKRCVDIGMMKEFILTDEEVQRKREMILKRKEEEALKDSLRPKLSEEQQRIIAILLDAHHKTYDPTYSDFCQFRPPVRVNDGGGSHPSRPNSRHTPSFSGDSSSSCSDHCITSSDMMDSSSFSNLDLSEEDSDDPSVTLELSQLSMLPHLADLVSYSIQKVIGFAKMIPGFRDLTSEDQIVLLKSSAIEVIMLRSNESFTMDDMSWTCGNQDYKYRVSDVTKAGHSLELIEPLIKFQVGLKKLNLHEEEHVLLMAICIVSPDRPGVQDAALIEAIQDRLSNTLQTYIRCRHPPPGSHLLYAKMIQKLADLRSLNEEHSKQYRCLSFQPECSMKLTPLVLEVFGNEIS
# PC-3 = experiment: Antiproliferative activity against human PC3 cells after 72 hrs by MTT assay; format: functional, cell-based; details: PC-3, 72 h
# Vitamin D3 receptor = molecular target: T2, Vitamin D3 receptor (Homo sapiens, UniProt P11473); experiment: Inhibition of Fluormone VDR Red binding to human VDR LBD expressed in insect cells assessed as binding ability by fluorescence polarization assay
# T2 sequence (P11473 whole entry): T1 sequence (whole entry)
# [2] = Selectivity index, ratio of IC50 for human L02 cells to IC50 for human PC3 cells; format: functional
# L02 = experiment: Antiproliferative activity against human L02 cells after 72 hrs by MTT assay; format: cell-based; details: L02, 72 h
# [3] = Selectivity index, ratio of IC50 for human L02 cells to IC50 for human MCF7 cells; format: functional
smiles,measurement,setting,value
CCn1cc(C(CC)(CC)c2ccc(C#CC(O)(CC)CC)c(C)c2)cc1C(=O)OCCO,IC50,MCF7,1.88 µM
same,Activity,[1],29.7%
same,IC50,PC-3,11.4 µM
CCn1c(C(=O)NCC(=O)O)ccc1C(CC)(CC)c1ccc(C#CC(O)(CC)CC)c(C)c1,IC50,Vitamin D3 receptor,0.0857 µM
same,IC50,MCF7,5.14 µM
same,Activity,[1],55.4%
same,IC50,PC-3,2.25 µM
CCn1cc(C(CC)(CC)c2ccc(C#CC(O)(CC)CC)c(C)c2)cc1C(=O)N[C@@H](C(=O)O)C(C)C,IC50,MCF7,18 µM
same,Activity,[1],5.9%
same,IC50,PC-3,10.3 µM
CCn1cc(C(CC)(CC)c2ccc(C#CC(O)(CC)CC)c(C)c2)cc1C(=O)N[C@@H](C)CO,IC50,MCF7,1.91 µM
same,Activity,[1],19.8%
same,Ratio IC50,[2],5.9
same,IC50,PC-3,6.05 µM
same,IC50,L02,35.4 µM
same,Ratio IC50,[3],18.5
CCCCC(=O)c1ccc(C(CC)(CC)c2ccc(C#CC(O)(CC)CC)c(C)c2)n1CC,IC50,MCF7,> 50 µM
same,IC50,PC-3,> 50 µM
CCn1cc(C(CC)(CC)c2ccc(C#CC(O)(CC)CC)c(C)c2)cc1C(=O)NCCN(C)C,IC50,Vitamin D3 receptor,0.0513 µM
same,IC50,MCF7,13.4 µM
same,Activity,[1],55.3%
same,IC50,PC-3,10.1 µM
CCn1cc(C(CC)(CC)c2ccc(C#CC(O)(CC)CC)c(C)c2)cc1C(=O)N[C@H](C(=O)O)C(C)C,IC50,MCF7,12.6 µM
same,Activity,[1],20%
same,IC50,PC-3,3.75 µM
CCN(CC)CCCNC(=O)c1ccc(C(CC)(CC)c2ccc(C#CC(O)(CC)CC)c(C)c2)n1CC,IC50,MCF7,17.8 µM
same,Activity,[1],18.8%
same,IC50,PC-3,8.5 µM
CCn1cc(C(CC)(CC)c2ccc(C#CC(O)(CC)CC)c(C)c2)cc1C(=O)NCCCN(C)C,IC50,MCF7,20.2 µM
same,Activity,[1],31.6%
same,IC50,PC-3,15.1 µM
CCn1c(C(=O)NCCCO)ccc1C(CC)(CC)c1ccc(C#CC(O)(CC)CC)c(C)c1,IC50,Vitamin D3 receptor,0.123 µM
same,IC50,MCF7,5.95 µM
same,Activity,[1],59.7%
same,IC50,PC-3,> 50 µM
CCn1cc(C(CC)(CC)c2ccc(C#CC(O)(CC)CC)c(C)c2)cc1C(=O)NCC(=O)OC,IC50,MCF7,26.5 µM
same,IC50,PC-3,17.4 µM
CCN(CC)CCNC(=O)c1ccc(C(CC)(CC)c2ccc(OCC(O)C(C)(C)C)c(C)c2)n1CC (stereo unspecified),IC50,Vitamin D3 receptor,0.0768 µM
same,IC50,MCF7,1.37 µM
same,Activity,[1],25.5%
same,Ratio IC50,[2],7.6
same,IC50,PC-3,2.8 µM
same,IC50,L02,21.2 µM
same,Ratio IC50,[3],15.5
CCCCC(=O)c1cc(C(CC)(CC)c2ccc(C#CC(O)(CC)CC)c(C)c2)cn1CC,IC50,MCF7,> 50 µM
same,IC50,PC-3,48.1 µM
CCn1c(C(=O)N[C@H](C(=O)O)C(C)C)ccc1C(CC)(CC)c1ccc(C#CC(O)(CC)CC)c(C)c1,IC50,MCF7,13 µM
same,Activity,[1],5.9%
same,IC50,PC-3,5 µM
CCN(CC)CCNC(=O)c1cc(C(CC)(CC)c2ccc(C#CC(O)(CC)CC)c(C)c2)cn1CC,IC50,Vitamin D3 receptor,0.0565 µM
same,IC50,MCF7,1.8 µM
same,Activity,[1],50.3%
same,Ratio IC50,[2],7.9
same,IC50,PC-3,5.35 µM
same,IC50,L02,42.1 µM
same,Ratio IC50,[3],23.4
CCn1c(C(=O)NCCC(=O)OC)ccc1C(CC)(CC)c1ccc(C#CC(O)(CC)CC)c(C)c1,IC50,MCF7,> 50 µM
same,IC50,PC-3,36.3 µM
CCn1c(C(=O)On2nnc3ccccc32)ccc1C(CC)(CC)c1ccc(C#CC(O)(CC)CC)c(C)c1,IC50,MCF7,> 50 µM
same,IC50,PC-3,> 50 µM
CCn1cc(C(CC)(CC)c2ccc(C#CC(O)(CC)CC)c(C)c2)cc1C(=O)NCC(=O)O,IC50,MCF7,17.5 µM
same,Activity,[1],14.6%
same,IC50,PC-3,6.3 µM
CCN(CC)CCNC(=O)c1ccc(C(CC)(CC)c2ccc(C#CC(O)(CC)CC)c(C)c2)n1CC,IC50,Vitamin D3 receptor,0.0732 µM
same,IC50,MCF7,3.77 µM
same,Activity,[1],62.2%
same,Ratio IC50,[2],3.5
same,IC50,PC-3,5.85 µM
same,IC50,L02,20.5 µM
same,Ratio IC50,[3],5.4
CCn1cc(C(CC)(CC)c2ccc(C#CC(O)(CC)CC)c(C)c2)cc1C(=O)NCCC(=O)O,IC50,MCF7,30.6 µM
same,Activity,[1],4.3%
same,IC50,PC-3,> 50 µM
C#CCCOC(=O)c1ccc(C(CC)(CC)c2ccc(C#CC(O)(CC)CC)c(C)c2)n1CC,IC50,MCF7,> 50 µM
same,IC50,PC-3,> 50 µM
CCn1c(C(=O)NCCC(=O)O)ccc1C(CC)(CC)c1ccc(C#CC(O)(CC)CC)c(C)c1,IC50,MCF7,> 50 µM
same,Activity,[1],13.6%
same,IC50,PC-3,5.13 µM
CCn1c(C(=O)NCc2ccc(OC)cc2)ccc1C(CC)(CC)c1ccc(C#CC(O)(CC)CC)c(C)c1,IC50,MCF7,> 50 µM
same,Activity,[1],4%
same,IC50,PC-3,> 50 µM

# Reference: ChEMBL document CHEMBL3997830, “Design, synthesis and biological evaluation of nonsecosteroidal vitamin D3 receptor ligands as anti-tumor agents” (Bioorg Med Chem Lett, 2017)
